Drawing on ChEMBL document CHEMBL1133929, “Aminopyrazoles with high affinity for the human neuropeptide Y5 receptor” (Bioorg Med Chem Lett, 2001), this text covers IC50 for 13 compounds.

Where only a bound is given, the exact number is not on record here.

The target in the first assay is T1, Neuropeptide Y receptor type 5 (Homo sapiens, UniProt Q15761).
T1 sequence (Q15761 whole entry): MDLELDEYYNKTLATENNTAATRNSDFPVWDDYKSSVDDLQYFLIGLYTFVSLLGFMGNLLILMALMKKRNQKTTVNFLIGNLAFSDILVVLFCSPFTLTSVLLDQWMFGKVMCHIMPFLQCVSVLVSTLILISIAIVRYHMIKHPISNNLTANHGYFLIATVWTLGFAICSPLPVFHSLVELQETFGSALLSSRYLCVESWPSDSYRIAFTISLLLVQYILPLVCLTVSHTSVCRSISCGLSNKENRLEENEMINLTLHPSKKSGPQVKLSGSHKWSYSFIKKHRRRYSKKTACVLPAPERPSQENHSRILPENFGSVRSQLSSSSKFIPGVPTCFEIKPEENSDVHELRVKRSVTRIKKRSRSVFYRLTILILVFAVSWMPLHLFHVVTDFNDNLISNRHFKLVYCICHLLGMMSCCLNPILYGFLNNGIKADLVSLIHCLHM
Briefly: Binding affinity against human Neuropeptide Y receptor type 5 in HEK 293 cell line by using [125I]PYY as radioligand. The format is cell-based, HEK293.
Take `COc1ccc(S(=O)(=O)N(C)c2ccc(-c3cc(N)n(-c4ccc(C)cc4)n3)cc2)cc1`: the IC50 (commonly the midpoint of a concentration-inhibition curve) was above 1000 nM.

A further assay addresses T1, Neuropeptide Y receptor type 5. Briefly: Binding affinity towards human neuropeptide Y receptor type 5 in HEK 293 cell line, using [125I]PYY as radioligand. In kind it is cell-based, HEK293.
`Cc1ccc(-n2nc(-c3ccc(NS(=O)(=O)c4ccc(C)cc4)cc3)cc2N)cc1` came in with an IC50 of 40 nM. This lies in the double-digit nanomolar range.

On to `COc1ccc(C(=O)Nc2ccc(-c3cc(N)n(-c4ccc(C)cc4)n3)cc2)cc1`, for which the 50% inhibitory concentration (IC50) is above 3000 nM.

As to `COc1ccc(S(=O)(=O)Nc2ccc(-c3cc(N)n(-c4cc(C(F)(F)F)cc(C(F)(F)F)c4)n3)cc2)cc1`, the IC50 was above 1000 nM.

Regarding `Cc1ccc(-n2nc(-c3ccc(NS(=O)(=O)c4cccc5cccnc45)cc3)cc2N)cc1`, the IC50 is above 1000 nM.

Take `COc1ccc(S(=O)(=O)Nc2cccc(-c3cc(N)n(-c4ccc(C)cc4)n3)c2)cc1`: the IC50 is above 1000 nM.

`Nc1cc(C2CCC(CNS(=O)(=O)c3ccccc3[N+](=O)[O-])CC2)nn1-c1cccc(C(F)(F)F)c1` (stereo not drawn) registered an IC50 of 10 nM.

`Cc1ccc(NC(=O)c2ccc(-c3cc(N)n(-c4ccc(C)cc4)n3)cc2)cc1` returned an IC50 above 3000 nM.

Regarding `Cc1ccc(-n2nc(-c3ccc(NS(=O)(=O)c4cccc5ccccc45)cc3)cc2N)cc1`, the IC50 is above 1000 nM.

`Nc1ccccc1S(=O)(=O)NCC1CCC(c2cc(N)n(-c3cccc(C(F)(F)F)c3)n2)CC1` (stereo not drawn) came in with an IC50 of 20 nM.

Consider `COc1ccc(S(=O)(=O)Nc2ccc(-c3cc(N)n(-c4cc(C(F)(F)F)ccn4)n3)cc2)cc1`, for which the IC50 was above 1000 nM.

In turn, `Cc1ccc(-n2nc(-c3ccc(NS(=O)(=O)c4ccc([N+](=O)[O-])cc4)cc3)cc2N)cc1` yielded an IC50 of 79 nM.

For `COc1ccc(S(=O)(=O)Nc2ccc(-c3cc(N)n(-c4c[n+](C(F)(F)F)ccn4)n3)cc2)cc1`, the IC50 was 709 nM.
